The nature of data set [1]: Plasma concentration in CD-1 mouse at 0.1 to 1 mg/kg, iv. As to conditions: in vivo. Format: ADME, organism-based.
In data set [2] the target is Voltage-gated inwardly rectifying potassium channel KCNH2 (Homo sapiens, UniProt Q12809). Kind of data set: Inhibition of human ERG expressed in HEK293 cells assessed as reduction in peak tail current after 2 to 5 mins by patch clamp based electrophysiology assay. Format: cell-based. In general terms: In patch-clamp work, channel activity is measured electrically.
For data set [3], the system named is Mus musculus. Kind of data set: Ex vivo receptor occupancy at GluN2B receptor in CD-1 mouse forebrain membranes assessed as reduction in [3H]Ro 25-6981 receptor labeling at 3 mg/kg, iv incubated for 5 mins by topcount micro scintillation counting method. Format: functional.
Data set [4] concerns the target Glutamate receptor ionotropic, NMDA 2B (Rattus norvegicus, UniProt Q00960). Kind of data set: Displacement of [3H]Ro 25-6981 from GluN2B receptor in Sprague-Dawley rat forebrain membranes incubated for 1 hr by topcount micro scintillation counting method. Further details: species or system Membrane. For orientation: Displacement assays read how much labelled ligand stays bound in the presence of the test substance.

Data set [5] has as its target Glutamate receptor ionotropic, NMDA 2D (Homo sapiens) (UniProt O15399). In words: Negative allosteric modulation of human GluN2D receptor expressed in Xenopus laevis oocytes assessed as inhibition of glutamate/glycine-induced channel current at 3 uM after 10 to 15 mins by two electrode voltage clamp based electrophysiology assay. It is filed as cell-based.
In data set [6] the target is Glutamate receptor ionotropic, NMDA 2C (Homo sapiens) (UniProt Q14957). In words: Negative allosteric modulation of human GluN2C receptor expressed in Xenopus laevis oocytes assessed as inhibition of glutamate/glycine-induced channel current at 3 uM after 10 to 15 mins by two electrode voltage clamp based electrophysiology assay. It is filed as cell-based. (Two-electrode voltage clamp is typically applied to oocytes expressing channels or transporters.)

Data set [7] concerns the target Glutamate receptor ionotropic, NMDA 2B (Homo sapiens, UniProt Q13224). Kind of data set: (§1) Negative allosteric modulation of human GluN2B receptor expressed in Xenopus laevis oocytes assessed as inhibition of glutamate/glycine-induced channel current after 15 to 20 mins by two electrode voltage clamp based electrophysiology assay. Format: cell-based.
Data set [8] concerns the target Glutamate receptor ionotropic, NMDA 2A (Homo sapiens) (UniProt Q12879). In words: Negative allosteric modulation of human GluN2A receptor expressed in Xenopus laevis oocytes assessed as inhibition of glutamate/glycine-induced channel current at 3 uM after 10 to 15 mins by two electrode voltage clamp based electrophysiology assay. Format: cell-based.
Data set [9] deals with Rhesus monkey. Kind of data set: Toxicity in monkey at 3.6 to 36 mg/kg, iv administered as single dose. It is filed as organism-based, Macaca mulatta. As to conditions: in vivo.
For data set [10], the system named is Rhesus monkey. In words: Cmax in monkey at 36 mg/kg, iv assessed as BMS-986169 level in plasma. Format: ADME, organism-based, Macaca mulatta. Also on record: dose 36 mg/kg, route intravenous. As to conditions: in vivo.
Data set [11] deals with Rattus norvegicus. In words: Toxicity in rat assessed as histopathological observations at 10 to 100 mg/kg/day administered iv. It is filed as organism-based. As to conditions: in vivo.
The nature of data set [12]: Stability of the compound in aqueous solution at 25 degC up to 90 days. Format: physicochemical. As to conditions: buffer, 2160 h.
In data set [13] the test system is Rattus norvegicus. Kind of data set: Toxicity in rat assessed as clinical pathological observations at 10 to 100 mg/kg/day administered iv. It is filed as organism-based. As to conditions: in vivo.
The nature of data set [14]: Stability of the compound at 50 degC up to 4 weeks using solid state compound. It is filed as physicochemical. As to conditions: 672 h.
Data set [15] is described as follows: Aqueous solubility of the compound at pH 7.4. As to conditions: aqueous medium. It is filed as physicochemical.
Data set [16] concerns Mus musculus. Kind of data set: Ex vivo receptor occupancy at GluN2B receptor in CD-1 mouse forebrain membranes assessed as reduction in [3H]Ro 25-6981 receptor labeling at 1 mg/kg, iv incubated for 5 mins by topcount micro scintillation counting method. Format: functional.
A short description of data set [17]: Plasma concentration in CD-1 mouse at 1 mg/kg, iv. Format: ADME, organism-based. As to conditions: in vivo.
Data set [18] concerns Mus musculus. Kind of data set: Antidepressant activity in CD-1 mouse assessed as decrease in immobility time administered iv 15 mins prior to test measured for 6 mins observation by forced swim test. Format: functional.
Data set [19] can be described thus: Fraction unbound in rat plasma. It is filed as ADME, cell-free.
For data set [20], the system named is Mus musculus. Kind of data set: Ex vivo receptor occupancy at GluN2B receptor in CD-1 mouse forebrain membranes assessed as reduction in [3H]Ro 25-6981 receptor labeling administered iv incubated for 5 mins by topcount micro scintillation counting method. It is filed as functional, organism-based. As to conditions: Membrane.
The test system of data set [21] is Mus musculus. Kind of data set: Ex vivo receptor occupancy at GluN2B receptor in CD-1 mouse forebrain membranes assessed as reduction in [3H]Ro 25-6981 receptor labeling at 0.3 mg/kg, iv incubated for 5 mins by topcount micro scintillation counting method. Format: functional.
A short description of data set [22]: Dissociation constant, pKa of the compound by spectrophotometric method. It is filed as physicochemical.
The nature of data set [23]: Fraction unbound in mouse plasma. It is filed as ADME, cell-free.
Data set [24] addresses Glutamate receptor ionotropic, NMDA 2B (Homo sapiens, UniProt Q05586+Q13224). The data set is described as §1. It is filed as cell-based.
Data set [25] in a line: Plasma concentration in CD-1 mouse at 0.3 mg/kg, iv. It is filed as ADME, organism-based. As to conditions: in vivo.
Data set [26] relates to Mus musculus. Kind of data set: Ex vivo receptor occupancy at GluN2B receptor in CD-1 mouse forebrain membranes assessed as reduction in [3H]Ro 25-6981 receptor labeling at 0.1 to 1 mg/kg, iv incubated for 5 mins by topcount micro scintillation counting method. Format: functional.
Data set [27] can be described thus: Fraction unbound in human plasma. Format: ADME, cell-free.

For orientation: IC50 means the concentration needed to halve the response being measured. The term Ki denotes a measure of affinity in units of concentration, obtained from inhibition or displacement. A word on the Cmax: it is the highest concentration seen after dosing. In general, solubility refers to the concentration that dissolves in the medium under given conditions. As a reminder, the fraction unbound is the share of the substance not bound to proteins or other matrix. What is called pKa is the negative logarithm of the acid dissociation constant.

≈ marks a conversion by molar mass, not a printed value. Calls of active or inactive are those of the source. The calls are words filed in the database; no cut-off is given here.

Chain of Voltage-gated inwardly rectifying potassium channel KCNH2 (Q12809 whole entry): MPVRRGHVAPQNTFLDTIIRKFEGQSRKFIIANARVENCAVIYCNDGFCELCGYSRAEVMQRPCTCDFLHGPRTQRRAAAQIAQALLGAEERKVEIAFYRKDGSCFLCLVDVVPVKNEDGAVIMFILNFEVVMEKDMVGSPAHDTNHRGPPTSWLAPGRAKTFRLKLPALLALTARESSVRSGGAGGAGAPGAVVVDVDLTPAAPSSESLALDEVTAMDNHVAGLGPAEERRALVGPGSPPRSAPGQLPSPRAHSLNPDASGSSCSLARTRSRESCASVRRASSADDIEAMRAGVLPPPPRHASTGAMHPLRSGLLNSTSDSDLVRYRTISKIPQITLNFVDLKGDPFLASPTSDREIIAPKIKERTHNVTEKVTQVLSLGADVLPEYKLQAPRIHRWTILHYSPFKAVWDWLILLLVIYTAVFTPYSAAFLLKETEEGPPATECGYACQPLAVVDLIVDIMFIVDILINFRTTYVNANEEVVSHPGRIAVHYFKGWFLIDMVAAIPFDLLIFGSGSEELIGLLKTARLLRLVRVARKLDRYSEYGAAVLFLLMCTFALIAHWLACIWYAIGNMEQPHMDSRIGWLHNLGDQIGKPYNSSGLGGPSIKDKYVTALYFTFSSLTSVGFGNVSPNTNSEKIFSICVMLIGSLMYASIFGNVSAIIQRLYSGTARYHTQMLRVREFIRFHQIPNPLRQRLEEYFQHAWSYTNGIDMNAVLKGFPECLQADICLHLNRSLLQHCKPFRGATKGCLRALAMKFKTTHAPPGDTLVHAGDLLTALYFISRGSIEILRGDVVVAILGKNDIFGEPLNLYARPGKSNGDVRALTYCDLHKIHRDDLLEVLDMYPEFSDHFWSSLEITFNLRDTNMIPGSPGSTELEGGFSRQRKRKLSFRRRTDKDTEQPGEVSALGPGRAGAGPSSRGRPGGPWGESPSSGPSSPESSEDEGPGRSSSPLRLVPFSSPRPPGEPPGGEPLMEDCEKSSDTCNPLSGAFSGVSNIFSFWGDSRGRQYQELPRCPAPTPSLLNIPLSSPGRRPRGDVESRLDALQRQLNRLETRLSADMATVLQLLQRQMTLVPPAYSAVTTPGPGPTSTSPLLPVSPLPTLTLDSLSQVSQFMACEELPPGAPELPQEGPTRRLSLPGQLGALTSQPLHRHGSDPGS
Chain of Glutamate receptor ionotropic, NMDA 2B (Rattus norvegicus, UniProt Q00960) (Q00960 whole entry): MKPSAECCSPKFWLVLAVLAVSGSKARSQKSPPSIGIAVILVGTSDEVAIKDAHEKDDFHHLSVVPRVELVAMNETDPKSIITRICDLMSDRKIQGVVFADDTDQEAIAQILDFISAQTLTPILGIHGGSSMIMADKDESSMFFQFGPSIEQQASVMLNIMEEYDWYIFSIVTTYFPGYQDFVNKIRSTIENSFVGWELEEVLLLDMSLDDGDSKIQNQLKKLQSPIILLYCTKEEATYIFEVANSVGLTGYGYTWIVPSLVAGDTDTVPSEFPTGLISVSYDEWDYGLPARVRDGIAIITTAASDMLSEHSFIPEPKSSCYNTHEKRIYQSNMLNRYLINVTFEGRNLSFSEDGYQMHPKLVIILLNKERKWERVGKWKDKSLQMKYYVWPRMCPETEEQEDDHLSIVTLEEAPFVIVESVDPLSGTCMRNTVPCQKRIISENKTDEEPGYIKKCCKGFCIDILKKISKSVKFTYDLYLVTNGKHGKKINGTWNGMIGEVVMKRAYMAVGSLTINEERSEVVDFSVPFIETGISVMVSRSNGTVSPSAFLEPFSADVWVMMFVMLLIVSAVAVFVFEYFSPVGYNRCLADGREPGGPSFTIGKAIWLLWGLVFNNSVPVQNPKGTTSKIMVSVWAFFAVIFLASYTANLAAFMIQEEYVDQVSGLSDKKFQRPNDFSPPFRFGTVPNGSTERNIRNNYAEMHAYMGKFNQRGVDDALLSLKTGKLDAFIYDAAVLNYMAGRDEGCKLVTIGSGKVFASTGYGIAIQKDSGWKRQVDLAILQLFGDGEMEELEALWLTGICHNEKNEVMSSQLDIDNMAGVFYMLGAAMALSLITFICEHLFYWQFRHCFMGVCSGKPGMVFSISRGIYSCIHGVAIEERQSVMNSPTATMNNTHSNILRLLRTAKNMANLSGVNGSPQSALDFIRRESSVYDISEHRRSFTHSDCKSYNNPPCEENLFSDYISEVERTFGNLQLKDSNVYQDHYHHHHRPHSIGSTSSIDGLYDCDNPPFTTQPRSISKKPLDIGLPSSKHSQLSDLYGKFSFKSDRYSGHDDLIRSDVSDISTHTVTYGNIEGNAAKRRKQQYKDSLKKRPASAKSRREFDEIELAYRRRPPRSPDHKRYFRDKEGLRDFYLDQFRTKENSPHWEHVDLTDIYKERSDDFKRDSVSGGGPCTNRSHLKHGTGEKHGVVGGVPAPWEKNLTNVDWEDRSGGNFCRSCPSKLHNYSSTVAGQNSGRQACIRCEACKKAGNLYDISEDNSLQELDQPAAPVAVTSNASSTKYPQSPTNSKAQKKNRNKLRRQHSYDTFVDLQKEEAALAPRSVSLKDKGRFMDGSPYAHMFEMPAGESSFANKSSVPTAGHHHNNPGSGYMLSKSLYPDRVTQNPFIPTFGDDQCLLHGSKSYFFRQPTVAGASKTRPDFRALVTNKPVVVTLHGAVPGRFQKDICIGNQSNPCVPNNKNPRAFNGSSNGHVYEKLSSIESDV
Chain of Glutamate receptor ionotropic, NMDA 2A (Homo sapiens) (Q12879 23-1464 limits assumed): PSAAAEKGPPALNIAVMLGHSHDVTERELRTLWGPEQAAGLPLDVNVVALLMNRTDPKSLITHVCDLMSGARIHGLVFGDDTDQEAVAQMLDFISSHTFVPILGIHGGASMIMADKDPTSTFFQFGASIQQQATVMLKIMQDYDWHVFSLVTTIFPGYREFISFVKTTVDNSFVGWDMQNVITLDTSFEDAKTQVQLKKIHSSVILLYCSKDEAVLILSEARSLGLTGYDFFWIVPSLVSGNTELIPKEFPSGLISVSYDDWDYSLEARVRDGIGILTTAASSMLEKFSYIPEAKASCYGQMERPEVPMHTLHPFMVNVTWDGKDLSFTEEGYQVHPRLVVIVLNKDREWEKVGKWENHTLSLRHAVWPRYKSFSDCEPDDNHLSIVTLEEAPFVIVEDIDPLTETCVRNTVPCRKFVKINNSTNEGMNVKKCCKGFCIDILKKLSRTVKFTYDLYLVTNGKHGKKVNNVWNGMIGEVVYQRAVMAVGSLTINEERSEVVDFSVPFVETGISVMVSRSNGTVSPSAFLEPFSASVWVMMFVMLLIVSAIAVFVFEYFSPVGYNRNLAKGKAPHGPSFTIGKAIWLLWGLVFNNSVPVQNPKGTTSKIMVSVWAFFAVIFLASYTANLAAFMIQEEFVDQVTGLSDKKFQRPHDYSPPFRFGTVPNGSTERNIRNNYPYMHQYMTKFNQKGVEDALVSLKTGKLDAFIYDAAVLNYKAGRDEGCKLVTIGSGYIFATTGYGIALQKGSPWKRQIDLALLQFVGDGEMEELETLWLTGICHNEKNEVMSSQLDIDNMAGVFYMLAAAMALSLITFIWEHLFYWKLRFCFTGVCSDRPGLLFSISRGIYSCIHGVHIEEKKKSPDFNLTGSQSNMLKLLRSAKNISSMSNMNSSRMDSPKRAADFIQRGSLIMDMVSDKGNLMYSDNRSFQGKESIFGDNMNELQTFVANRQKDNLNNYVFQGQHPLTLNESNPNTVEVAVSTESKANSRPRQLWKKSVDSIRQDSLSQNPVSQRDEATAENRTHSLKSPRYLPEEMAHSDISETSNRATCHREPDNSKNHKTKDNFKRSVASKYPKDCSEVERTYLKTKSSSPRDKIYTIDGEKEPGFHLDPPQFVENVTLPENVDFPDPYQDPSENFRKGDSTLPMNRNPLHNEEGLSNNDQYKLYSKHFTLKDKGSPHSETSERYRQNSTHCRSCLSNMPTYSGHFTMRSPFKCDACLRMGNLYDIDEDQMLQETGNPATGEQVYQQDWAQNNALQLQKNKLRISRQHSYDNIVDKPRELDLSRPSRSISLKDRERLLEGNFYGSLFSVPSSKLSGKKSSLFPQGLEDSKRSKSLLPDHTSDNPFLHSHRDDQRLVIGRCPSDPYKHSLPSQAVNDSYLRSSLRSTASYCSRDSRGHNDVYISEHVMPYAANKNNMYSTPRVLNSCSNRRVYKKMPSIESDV

In [1], `Cc1ccc(CN2CC[C@@H](N3CCC(c4ccc(O)cc4)C(F)(F)C3)C2=O)cc1` (some centres not stated) came in with a concentration of 2500 nM. The IC50 in data set [2] is above 30000 nM. The Occ in the data set on Mus musculus [3] is reported as 93%.
For the molecule `Cc1ccc(CN2CC[C@@H](N3CC[C@H](c4ccc(O)cc4)[C@@H](F)C3)C2=O)cc1`, the concentration in data set [1] was determined as 710 nM. Also, in data set [2], the IC50 is above 30000 nM. In addition, the Occ in the data set on Mus musculus [3] worked out at 87%.
Turning to `O=C1[C@H](N2CC[C@@H](c3ccc(O)cc3)[C@H](F)C2)CCN1Cc1ccc(F)cc1`, in data set [1], the concentration came to 1200 nM. Besides, in [2], the IC50 is above 5000 nM. Besides, the Occ in the data set on Mus musculus [3] is on record as 81%. The Ki in [4] came to 11 nM.
Regarding `O=C(O)c1ccc(CN2CC[C@@H](N3CC[C@@H](c4ccc(O)cc4)[C@H](F)C3)C2=O)cc1`, the inhibition entry in data set [5], in [6], in [7] and in data set [8] was “inactive” in each case.
`Cc1ccc(CN2CC[C@@H](N3CC[C@@H](c4ccc(OP(=O)(O)O)cc4)[C@H](F)C3)C2=O)cc1`: the Activity entry in the data set with Rhesus monkey [9], in the data set on Rattus norvegicus [11] and in the data set with Rattus norvegicus [13] was “Non-Toxic” throughout. The Cmax in the data set on Rhesus monkey [10] turned out to be 19000 nM. Further, the Stability result in data set [12] and in data set [14] was “Stable” in each case. The molecule also came in with a solubility in data set [15] of 19.9 mg/mL (≈ 43 mM).
`Cc1ccc(CN2CC[C@@H](N3CCC(c4ccc(O)cc4)CC3)C2=O)cc1`: the concentration in [1] was determined as 220 nM. In addition, the Occ with Mus musculus [16] stood at 92%. Moreover, the IC50 in [2] was found to be 400 nM.
In data set [1], `Cc1ccc(CN2CC[C@@H](N3CC[C@H](c4ccc(O)cc4)[C@H](F)C3)C2=O)cc1` yielded a concentration of 590 nM. Also, the IC50 in data set [2] is 7800 nM. In addition, the Occ in the data set with Mus musculus [3] was 95%.
In the case of `O=C1[C@H](N2CCC(c3ccc(O)cc3)CC2)CCN1Cc1ccc(F)cc1`, the concentration was found to be 340 nM in data set [17], 150 nM in data set [1] and 70 nM in data set [25]. Moreover, the Activity result with Mus musculus [18] and with Mus musculus [20] was “Dose-dependent effect” in each case. Also, the minimal effective dose with Mus musculus [18] (CD-1, iv, read-out: MED) worked out at 0.56 mg/kg. For the same molecule, the fraction unbound in data set [19] turned out to be 0.11; in [23], 0.12; in [27], 0.1. Besides, the figures for the Occ in the data set with Mus musculus [21], in the data set with Mus musculus [16] and in the data set on Mus musculus [26] were 60%, 95% and 75%, respectively. In [22], this molecule displayed a pKa of 6.8. The figures for the IC50 in data set [2] and in [24] were 620 nM and 4.2 nM, respectively. For the same molecule, the Ki in data set [4] was found to be 1.4 nM.
As for `O=C1NCC[C@H]1N1CC[C@@H](c2ccc(O)cc2)[C@H](F)C1`, the inhibition entry in data set [5], in data set [6], in data set [7] and in data set [8] was “inactive” in each case.
